Laboratory results taken from the NIST ThermoML archive (doi:10.1016/j.jct.2018.07.026).

Assays:
[1] = for Normal melting temperature: Crystal 1, DTA
[2] = Molar enthalpy of transition or fusion; conditions: Crystal 1; DSC
[3] = molar heat capacity at constant pressure; conditions: 78.8 kPa, Crystal, DSC

O=C(O)c1ccc([N+](=O)[O-])cc1C(=O)O [4-nitrophthalic acid]
Conditions	mass density [kg/m3]
[1], 298.15 K, 101.33 kPa, Crystal, Pycnometric method	1647

Conditions	Molar enthalpy of transition or fusion [kcal/mol]	Normal melting temperature [°C]
[1]	–	167
[2]	8.84	–

[3]
Conditions	molar heat capacity at constant pressure [J/K/mol]
295.15 K	229.53
296.15 K	230.9
297.15 K	232.06
298.15 K	233.01
299.15 K	233.22
300.15 K	234.59
301.15 K	236.28
302.15 K	237.02
303.15 K	237.97
304.15 K	239.13
305.15 K	239.66
306.15 K	240.19
307.15 K	240.5
308.15 K	240.61
309.15 K	240.93
310.15 K	242.51
311.15 K	241.24
312.15 K	242.62
313.15 K	243.57
314.15 K	244.09
315.15 K	244.83
316.15 K	245.36
317.15 K	246.1
318.15 K	246.2
319.15 K	246.94
320.15 K	248
321.15 K	248.74
322.15 K	249.37
323.15 K	250.22
324.15 K	250.95
325.15 K	251.69
326.15 K	252.22
327.15 K	252.64
328.15 K	253.38
329.15 K	254.02
330.15 K	254.54
331.15 K	255.07
332.15 K	255.71
333.15 K	256.23
334.15 K	256.76
335.15 K	257.5
336.15 K	258.34
337.15 K	256.97
338.15 K	258.45
339.15 K	258.98
340.15 K	259.4
341.15 K	259.93
342.15 K	260.67
343.15 K	261.41
344.15 K	261.72
345.15 K	262.25
346.15 K	262.78
347.15 K	263.52
348.15 K	263.94
349.15 K	264.47
350.15 K	264.99
351.15 K	265.42
352.15 K	266.05
353.15 K	266.26
354.15 K	266.79
355.15 K	267.32
356.15 K	267.74
357.15 K	267.95
358.15 K	268.58
359.15 K	268.9
360.15 K	269.64
361.15 K	269.85
362.15 K	270.27
363.15 K	270.59
364.15 K	271.12
365.15 K	271.86
366.15 K	272.17
367.15 K	272.81
368.15 K	273.23
369.15 K	274.07
370.15 K	274.39
371.15 K	275.02
372.15 K	275.23
373.15 K	275.66
374.15 K	276.29
375.15 K	276.61
376.15 K	277.03
377.15 K	277.56
378.15 K	278.51
379.15 K	279.03
380.15 K	279.56
381.15 K	280.3
382.15 K	280.83
383.15 K	281.57
384.15 K	282.1
385.15 K	282.84
386.15 K	283.26
387.15 K	284.21
388.15 K	284.95
389.15 K	285.37
390.15 K	286.64
391.15 K	287.48
392.15 K	288.22
393.15 K	288.32
394.15 K	289.27
395.15 K	290.33

O=C(O)c1cccc([N+](=O)[O-])c1C(=O)O [3-nitro-1,2-benzenedicarboxylic acid]
Conditions	Molar enthalpy of transition or fusion [kcal/mol]	Normal melting temperature [°C]
[1]	–	223.2
[2]	13.2	–

[3]
Conditions	molar heat capacity at constant pressure [J/K/mol]
295.15 K	242.66
296.15 K	244.28
297.15 K	245.61
298.15 K	246.53
299.15 K	247.02
300.15 K	248.36
301.15 K	249.69
302.15 K	250.75
303.15 K	251.67
304.15 K	252.72
305.15 K	253.35
306.15 K	253.99
307.15 K	254.41
308.15 K	254.83
309.15 K	255.47
310.15 K	256.8
311.15 K	255.96
312.15 K	257.22
313.15 K	258
314.15 K	258.77
315.15 K	259.12
316.15 K	260.18
317.15 K	260.67
318.15 K	261.31
319.15 K	261.94
320.15 K	262.71
321.15 K	263.56
322.15 K	264.19
323.15 K	264.97
324.15 K	265.67
325.15 K	266.44
326.15 K	266.94
327.15 K	267.57
328.15 K	268.41
329.15 K	268.77
330.15 K	269.4
331.15 K	269.96
332.15 K	270.6
333.15 K	271.23
334.15 K	271.79
335.15 K	272.36
336.15 K	273.27
337.15 K	272.43
338.15 K	273.83
339.15 K	274.4
340.15 K	275.03
341.15 K	275.66
342.15 K	276.44
343.15 K	277.14
344.15 K	277.63
345.15 K	278.34
346.15 K	278.97
347.15 K	279.75
348.15 K	280.38
349.15 K	280.94
350.15 K	281.5
351.15 K	281.72
352.15 K	282.07
353.15 K	282.49
354.15 K	282.91
355.15 K	283.48
356.15 K	284.11
357.15 K	284.32
358.15 K	285.02
359.15 K	285.59
360.15 K	286.22
361.15 K	286.71
362.15 K	287.21
363.15 K	287.7
364.15 K	288.12
365.15 K	288.68
366.15 K	289.32
367.15 K	289.95
368.15 K	290.3
369.15 K	290.86
370.15 K	291.29
371.15 K	291.64
372.15 K	292.06
373.15 K	292.62
374.15 K	293.26
375.15 K	293.47
376.15 K	294.1
377.15 K	294.59
378.15 K	295.23
379.15 K	295.72
380.15 K	296.07
381.15 K	296.57
382.15 K	296.99
383.15 K	297.55
384.15 K	297.9
385.15 K	298.39
386.15 K	298.68
387.15 K	299.24
388.15 K	299.73
389.15 K	300.01
390.15 K	300.86
391.15 K	301.21
392.15 K	301.49
393.15 K	301.84
394.15 K	302.2
395.15 K	302.69
396.15 K	303.25
397.15 K	303.74
398.15 K	304.45
399.15 K	305.22
400.15 K	305.71
401.15 K	306.28
402.15 K	306.84
403.15 K	307.33
404.15 K	307.68
405.15 K	308.25
406.15 K	308.74
407.15 K	309.02
408.15 K	309.73
409.15 K	310.15
410.15 K	310.64
411.15 K	311.13
412.15 K	311.56
